How the values were obtained:
[1] = molecular target: T1, human B1R (Homo sapiens, UniProt P46663); assay: FLIPR Ca2+ functional study on bradykinin receptor 1 (hB1R CHO K1 cells); assay type: cell-based; settings: % inhibition human B1R at 10 μM
T1 construct: expressed in transfected cells; host or cells: CHO K1 cells
T1 sequence (P46663 1-353): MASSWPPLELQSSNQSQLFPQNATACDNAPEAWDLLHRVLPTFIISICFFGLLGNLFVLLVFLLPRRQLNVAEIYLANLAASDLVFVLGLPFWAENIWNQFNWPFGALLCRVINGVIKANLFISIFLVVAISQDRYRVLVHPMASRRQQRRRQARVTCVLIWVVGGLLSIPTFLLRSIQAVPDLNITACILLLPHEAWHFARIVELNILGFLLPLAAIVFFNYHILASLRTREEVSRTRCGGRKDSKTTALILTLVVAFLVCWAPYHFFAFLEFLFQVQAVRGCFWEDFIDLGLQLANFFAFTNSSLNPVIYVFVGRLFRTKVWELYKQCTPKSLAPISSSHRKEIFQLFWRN
Procedure, shortened: (§1)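 CHO K1 cells stably expressing human or rat B1R were loaded with Fluo-4 and read on FLIPR (ex 488/em 540 nm, peak counts). Test compound (10 μM, or a concentration range for IC50) was added first for % activation versus control agonist; after 10-20 min, EC80 Lys-Des-Arg9-bradykinin (human) or Des-Arg9-bradykinin (rat) was added, giving % inhibition of maximum. n=2-3, N≥2.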

[2] = molecular target: T2, rat B1R (Rattus norvegicus, UniProt P97583); assay: FLIPR Ca2+ functional study on bradykinin receptor 1 (rB1R CHO K1 cells); assay type: cell-based
T2 construct: expressed in transfected cells; host or cells: CHO K1 cells
T2 sequence (P97583 1-337): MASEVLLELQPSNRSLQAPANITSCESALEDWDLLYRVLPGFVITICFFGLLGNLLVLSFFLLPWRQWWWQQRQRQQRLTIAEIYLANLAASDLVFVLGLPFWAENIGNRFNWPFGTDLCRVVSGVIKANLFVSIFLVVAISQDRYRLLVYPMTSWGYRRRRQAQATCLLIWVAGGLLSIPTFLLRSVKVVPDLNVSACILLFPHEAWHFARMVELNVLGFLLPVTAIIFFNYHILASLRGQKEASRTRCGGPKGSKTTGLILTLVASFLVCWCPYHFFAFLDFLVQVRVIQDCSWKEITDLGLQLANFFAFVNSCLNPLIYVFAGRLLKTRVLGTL
Procedure, shortened: as §1

Row | % inh. (hum. B1R) 10 μM [1] | % inh. (rat B1R) 10 μM ([2]; % inhibition rat B1R at 10 μM) | inhibition at 10 µM ([1]; read-out: % inh. (hum. B1R) 10 μM) | inhibition at 10 µM ([2]; CHO-K1, % inhibition rat B1R at 10 μM, read-out: % inh. (rat B1R) 10 μM) | SMILES
1 | 77% | 101% |  |  | COc1cc(C)c(S(=O)(=O)N2CCCCC2COc2ccnc(N3CCC4(CCN(c5ccncc5)CC4)CC3)n2)c(C)c1 (stereo not shown) [H_CC-032]
2 |  |  | 54% | 102% | COc1cc(C)c(S(=O)(=O)N(C)C(COc2ccnc(N3CCC4(CCN(c5ccncc5)CC4)CC3)n2)c2ccccc2)c(C)c1 (stereo not shown) [H_CC-037, 4-methoxy-N,2,6-trimethyl-N-[1-phenyl-2-[[2-[3-(4-pyridyl)-3,9-diazaspiro[5.5]undecan-9-yl]-4-pyrimidinyl]oxy]ethyl]benzenesulfonamide]
